Literature values as cited in article PMC7520961, “Safety evaluation of the interchangeable use of robenacoxib in commercially-available tablets and solution for injection in cats” (BMC Veterinary Research, 2020).

Assays:
anesthetized cats = settings: cited from earlier work
humans = settings: in vivo; cited from earlier work

| SMILES | QT interval maximum (anesthetized cats; almokalant infusion) | lengthening of the QT interval (anesthetized cats; almokalant infusion) | QT interval before lengthening (anesthetized cats; before almokalant effect) | adverse oral reaction (humans) |
| --- | --- | --- | --- | --- |
| CCC[S+]([O-])CCCN(CC)CC(O)COc1ccc(C#N)cc1 (stereo not shown) [almokalant] | 349 ± 8.0 ms | approximately 45% | 241 ± 6.0 ms |  |
| CS(=O)(=O)c1ccc(C2=C(c3ccccc3)C(=O)OC2)cc1 [rofecoxib] |  |  |  | Oral ulceration |
